Experimental data from ChEMBL document CHEMBL3885881, “DrugMatrix”.

Species: Rattus norvegicus
Experiment: DrugMatrix - Regimen: Daily Repeat
Format: toxicity, organism-based, Sprague-Dawley
Design: regimen Daily Repeat, gender Male, age 6-8 weeks
Settings: in vivo, po, route oral GAVAGE, […]; for ABSOLUTE BASOPHIL / ABSOLUTE EOSINOPHIL / BASOPHIL / EOSINOPHIL / NUCLEATED RED BLOOD CELLS / ABSOLUTE LYMPHOCYTE / ABSOLUTE MONOCYTE / ABSOLUTE SEGMENTED NEUTROPHIL / ERYTHROCYTE COUNT / HEMATOCRIT / HEMOGLOBIN / LEUKOCYTE COUNT / LYMPHOCYTE / MEAN CORPUSCULAR HEMOGLOBIN / MEAN CORPUSCULAR HEMOGLOBIN CONCENTRATION / MEAN CORPUSCULAR VOLUME / MONOCYTE / NEUTROPHIL / PLATELET COUNT: tissue Blood; for ALANINE AMINOTRANSFERASE / ALBUMIN / ALKALINE PHOSPHATASE / ASPARTATE AMINOTRANSFERASE / BLOOD UREA NITROGEN / CARBON DIOXIDE / CHLORIDE / CHOLESTEROL / CREATINE PHOSPHOKINASE / CREATININE / GLUCOSE / LACTATE DEHYDROGENASE / LIPASE / PHOSPHORUS / POTASSIUM / SODIUM / TOTAL BILIRUBIN / TOTAL PROTEIN / URIC ACID: tissue Plasma
[1] = 0 mg/kg, 72 h, dose level Control, time 3 day
[2] = 0 mg/kg, 120 h, dose level Control, time 5 day
[3] = 0.08 mg/kg, 72 h, dose level Low, time 3 day
[4] = 0.08 mg/kg, 120 h, dose level Low, time 5 day
[5] = 12 mg/kg, 72 h, dose level M1, time 3 day

SMILES: C#C[C@]1(O)CC[C@H]2[C@@H]3CCC4=CC(=O)CC[C@@H]4[C@H]3CC[C@@]21C [NORETHINDRONE]
- ABSOLUTE BASOPHIL [1]: 0 CELLS/uL
- ABSOLUTE EOSINOPHIL [1]: 14 CELLS/uL
- BASOPHIL [1]: 0%
- EOSINOPHIL [1]: 0.17%
- NUCLEATED RED BLOOD CELLS [1]: 0 /100WBC
- ABSOLUTE BASOPHIL [2]: 0 CELLS/uL
- BASOPHIL [2]: 0%
- ABSOLUTE BASOPHIL [3]: 0 CELLS/uL
- ABSOLUTE EOSINOPHIL [3]: 0 CELLS/uL
- ABSOLUTE LYMPHOCYTE [3]: 8095 CELLS/uL
- ABSOLUTE MONOCYTE [3]: 0 CELLS/uL
- ABSOLUTE SEGMENTED NEUTROPHIL [3]: 538.33 CELLS/uL
- BASOPHIL [3]: 0%
- EOSINOPHIL [3]: 0%
- ERYTHROCYTE COUNT [3]: 4.99 x10E6/uL
- HEMATOCRIT [3]: 31.97%
- HEMOGLOBIN [3]: 12.7 G/DL
- LEUKOCYTE COUNT [3]: 8.63 x10E3/uL
- LYMPHOCYTE [3]: 94.33%
- MEAN CORPUSCULAR HEMOGLOBIN [3]: 25.5 pg
- MEAN CORPUSCULAR HEMOGLOBIN CONCENTRATION [3]: 39.77 G/DL
- MEAN CORPUSCULAR VOLUME [3]: 64.07 fL
- MONOCYTE [3]: 0%
- NEUTROPHIL [3]: 5.67%
- NUCLEATED RED BLOOD CELLS [3]: 0 /100WBC
- PLATELET COUNT [3]: 1042.33 x10E3/uL
- ALANINE AMINOTRANSFERASE [3]: 76.33 u/L
- ALBUMIN [3]: 4.1 G/DL
- ALKALINE PHOSPHATASE [3]: 395.67 u/L
- ASPARTATE AMINOTRANSFERASE [3]: 84.33 u/L
- BLOOD UREA NITROGEN [3]: 13 mg/dL
- CARBON DIOXIDE [3]: 28 mmol/L
- CHLORIDE [3]: 101 MEQ/L
- CHOLESTEROL [3]: 81 mg/dL
- CREATINE PHOSPHOKINASE [3]: 236 u/L
- CREATININE [3]: 0.17 mg/dL
- GLUCOSE [3]: 185.33 mg/dL
- LACTATE DEHYDROGENASE [3]: 127 u/L
- LIPASE [3]: 24.67 u/L
- PHOSPHORUS [3]: 9.57 mg/dL
- POTASSIUM [3]: 5.52 MEQ/L
- SODIUM [3]: 144.63 MEQ/L
- TOTAL BILIRUBIN [3]: 0.1 mg/dL
- TOTAL PROTEIN [3]: 5.67 G/DL
- URIC ACID [3]: 0.77 mg/dL
- ABSOLUTE BASOPHIL [4]: 0 CELLS/uL
- ABSOLUTE EOSINOPHIL [4]: 0 CELLS/uL
- ABSOLUTE LYMPHOCYTE [4]: 11824 CELLS/uL
- ABSOLUTE MONOCYTE [4]: 160 CELLS/uL
- ABSOLUTE SEGMENTED NEUTROPHIL [4]: 1549.33 CELLS/uL
- BASOPHIL [4]: 0%
- EOSINOPHIL [4]: 0%
- ERYTHROCYTE COUNT [4]: 5.24 x10E6/uL
- HEMATOCRIT [4]: 32.97%
- HEMOGLOBIN [4]: 13 G/DL
- LEUKOCYTE COUNT [4]: 13.53 x10E3/uL
- LYMPHOCYTE [4]: 87%
- MEAN CORPUSCULAR HEMOGLOBIN [4]: 24.87 pg
- MEAN CORPUSCULAR HEMOGLOBIN CONCENTRATION [4]: 39.43 G/DL
- MEAN CORPUSCULAR VOLUME [4]: 63.07 fL
- MONOCYTE [4]: 1%
- NEUTROPHIL [4]: 12%
- NUCLEATED RED BLOOD CELLS [4]: 0 /100WBC
- PLATELET COUNT [4]: 1265.67 x10E3/uL
- ALANINE AMINOTRANSFERASE [4]: 76 u/L
- ALBUMIN [4]: 4.27 G/DL
- ALKALINE PHOSPHATASE [4]: 393 u/L
- ASPARTATE AMINOTRANSFERASE [4]: 91.67 u/L
- BLOOD UREA NITROGEN [4]: 10.67 mg/dL
- CARBON DIOXIDE [4]: 30 mmol/L
- CHLORIDE [4]: 98 MEQ/L
- CHOLESTEROL [4]: 68 mg/dL
- CREATINE PHOSPHOKINASE [4]: 173 u/L
- CREATININE [4]: 0.12 mg/dL
- GLUCOSE [4]: 150.67 mg/dL
- LACTATE DEHYDROGENASE [4]: 80.33 u/L
- LIPASE [4]: 33.67 u/L
- PHOSPHORUS [4]: 9.53 mg/dL
- POTASSIUM [4]: 5.88 MEQ/L
- SODIUM [4]: 144.2 MEQ/L
- TOTAL BILIRUBIN [4]: 0.1 mg/dL
- TOTAL PROTEIN [4]: 5.83 G/DL
- URIC ACID [4]: 0.63 mg/dL
- ABSOLUTE BASOPHIL [5]: 0 CELLS/uL
- ABSOLUTE EOSINOPHIL [5]: 0 CELLS/uL
- ABSOLUTE LYMPHOCYTE [5]: 6372.33 CELLS/uL
- ABSOLUTE MONOCYTE [5]: 130.67 CELLS/uL
- ABSOLUTE SEGMENTED NEUTROPHIL [5]: 463.67 CELLS/uL
- BASOPHIL [5]: 0%
- EOSINOPHIL [5]: 0%
- ERYTHROCYTE COUNT [5]: 5.18 x10E6/uL
- HEMATOCRIT [5]: 32.47%
- HEMOGLOBIN [5]: 12.27 G/DL
- LEUKOCYTE COUNT [5]: 6.97 x10E3/uL
- LYMPHOCYTE [5]: 90.33%
- MEAN CORPUSCULAR HEMOGLOBIN [5]: 23.7 pg
- MEAN CORPUSCULAR HEMOGLOBIN CONCENTRATION [5]: 37.8 G/DL
- MEAN CORPUSCULAR VOLUME [5]: 62.77 fL
- MONOCYTE [5]: 1.67%
- NEUTROPHIL [5]: 8%
- NUCLEATED RED BLOOD CELLS [5]: 0 /100WBC
- PLATELET COUNT [5]: 1187.33 x10E3/uL
- ALANINE AMINOTRANSFERASE [5]: 50 u/L
- ALBUMIN [5]: 4.47 G/DL
- ALKALINE PHOSPHATASE [5]: 371.33 u/L
- ASPARTATE AMINOTRANSFERASE [5]: 87.67 u/L
- BLOOD UREA NITROGEN [5]: 11.33 mg/dL
- CARBON DIOXIDE [5]: 34 mmol/L
- CHLORIDE [5]: 101.67 MEQ/L
- CHOLESTEROL [5]: 32.67 mg/dL
- CREATINE PHOSPHOKINASE [5]: 431.33 u/L
- CREATININE [5]: 0.19 mg/dL
- GLUCOSE [5]: 136.67 mg/dL
- LACTATE DEHYDROGENASE [5]: 119.33 u/L
- LIPASE [5]: 8.67 u/L
- PHOSPHORUS [5]: 11.1 mg/dL
- POTASSIUM [5]: 5.95 MEQ/L
